Reference: patent US11084824B2, “Pyrazolopyrimidine derivatives, preparation method thereof, and pharmaceutical composition for use in preventing or treating cancer, autoimmune disease and brain disease containing the same as an active ingredient” (Korea Research Institute of Chemical Technology, priority 2017, dated 2021)
Structures can show the parent of a compound that is named as a salt.

Key:
[1] = molecular target: Bruton's tyrosine kinase (BTK) (Homo sapiens (Human), UniProt Q06187); assay: BTK enzyme inhibition assay (Cisbio HTRF kit); assay type: biochemical; details: 30 minutes reaction, fluorescence 665 nm/620 nm
Procedure: BTK enzyme evaluation with each compound of examples of the invention was performed by using BTK enzyme inhibition diagnosis kit (Cisbio, Codolet, France). […] Then, EDTA (ethylenediaminetetraacetic acid) was added thereto in order to terminate the reaction. At this time, the EDTA solution contained curopium-containing antibody (antiphosphoresidue antibody) and straptavidin-XL665 (SA-XL665, Cisbio). After incubation for 1 hour, fluorescence was measured. The emission values of 665 nm and 620 nm excited at 337 nm were measured with Envision reader. IC50 values were determined using GraphPad prism (version 5). Herein, the curve indicates a nonlinear regression model, which was determined by logarithmic functions and reaction values.

TMD8 cells = assay: TMD8 cell growth inhibition (WST-1, 72 hours); assay type: cell-based; details: Homo sapiens, TMD8 ABC type DLBCL cell line, WST-1, absorbance 450 nm
Procedure: TDM-8 cells, the ABC (activated B-cell) type DLBCL (diffuse large B cell lymphoma) cell line sensitive to BTK signaling, were seeded in a 96-well plate at 30% confluency. Then, the compounds of the invention were treated thereto at different concentrations. 72 hours later, WST-1 reagent was added thereto. One hour later, absorbance was measured at 450 nm by using a spectramax spectrophotometer.

[2] = tested on: human peripheral blood mononuclear cells (human PBMC); assay: TNFa inhibition in human PBMC monocytes (ELISA); assay type: cell-based; details: TNFa concentration in culture medium by ELISA, HSA/anti-HSA antibody coated plate, overnight culture, read-out: hPBMC IC50
Procedure: 20 ug/ml of human serum albumin (HAS) solution was prepared and distributed in a 96-well plate (200 μl/well). Reaction was induced at 4° C. for overnight and then 10% FBS solution was treated thereto (200 μl/well), followed by elimination. Lastly, 10 ug/ml of anti-HSA antibody was treated thereto (200 μl/well) for 1 hour, followed by elimination. An appropriate number of monocytes of human peripheral blood mononuclear cells (human PBMC) were distributed in the prepared 96-well plate. The target compounds were treated thereto at different concentration via serial dilution method, followed by culture for overnight. IC50 values of the compounds were determined by confirming the TNFa inhibition activity of the compounds between the maximum concentration (positive control) and the minimum concentration (negative control) of TNFa, and the results are shown in Table 8.

Chain of Bruton's tyrosine kinase (BTK) (Q06187 whole entry): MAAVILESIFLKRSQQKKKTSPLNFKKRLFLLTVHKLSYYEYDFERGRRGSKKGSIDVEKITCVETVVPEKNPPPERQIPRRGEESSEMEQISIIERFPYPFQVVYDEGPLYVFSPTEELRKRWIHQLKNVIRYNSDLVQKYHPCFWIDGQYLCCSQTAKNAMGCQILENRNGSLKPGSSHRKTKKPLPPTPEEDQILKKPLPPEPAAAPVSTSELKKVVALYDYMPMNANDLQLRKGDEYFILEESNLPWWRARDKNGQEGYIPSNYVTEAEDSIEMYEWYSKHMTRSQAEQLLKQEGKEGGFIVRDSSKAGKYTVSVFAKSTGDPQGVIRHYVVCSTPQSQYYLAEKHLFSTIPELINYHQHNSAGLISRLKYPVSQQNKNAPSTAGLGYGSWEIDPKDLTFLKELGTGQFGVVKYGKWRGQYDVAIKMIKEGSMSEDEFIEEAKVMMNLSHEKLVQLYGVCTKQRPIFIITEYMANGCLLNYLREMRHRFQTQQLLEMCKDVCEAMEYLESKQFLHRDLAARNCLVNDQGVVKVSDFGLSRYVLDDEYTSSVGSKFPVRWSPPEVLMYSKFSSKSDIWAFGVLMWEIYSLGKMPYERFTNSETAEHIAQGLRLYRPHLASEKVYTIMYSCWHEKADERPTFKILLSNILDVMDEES

Compound	IC50 [1]	IC50 (TMD8 cells)	IC50 [2]
CC(=O)N1CCc2ccc(Nc3ncc4c(Nc5c(C)cccc5C)nn(C)c4n3)cc2C1 [Example 1, 1-(7-(3-(2,6-dimethylphenylamino)-1-methyl-1H-pyrazolo[3,4-d]pyrimidine-6-ylamino)-3,4-dihydroisoquinoline-2(1H)-yl)ethaneone]	0.6 nM	41.1 nM	35 nM
Cc1cccc(C)c1Nc1nn(C)c2nc(Nc3ccc4c(c3)CNCC4)ncc12 [Example 2, N^3-(2,6-dimethylphenyl)-1-methyl-N^6-(1,2,3,4-tetrahydroisoquinoline-7-yl)-1H-pyrazolo[3,4-d]pyrimidine-3,6-diamine]		30.1 nM	7.7 nM
Cn1nc(Nc2ccccc2)c2cnc(Nc3ccc4c(c3)CNCC4)nc21 [Example 10, 1-methyl-N^3-phenyl-N^6-(1,2,3,4-tetrahydroisoquinoline-7-yl)-1H-pyrazolo[3,4-d]pyrimidine-3,6-diamine]			202 nM
Cn1nc(Nc2c(Cl)cccc2Cl)c2cnc(Nc3ccc4c(c3)CCNC4)nc21 [Example 15, N^3-(2,6-dichlorophenyl)-1-methyl-N^6-(1,2,3,4-tetrahydroisoquinoline-6-yl)-1H-pyrazolo[3,4-d]pyrimidine-3,6-diamine]		41 nM	1.3 nM
Cc1ccc(Nc2nn(C)c3nc(Nc4ccc5c(c4)CNCC5)ncc23)c(C)c1 [Example 39, N^3-(2,4-dimethylphenyl)-1-methyl-N^6 (1,2,3,4-tetrahydroisoquinoline-7-yl)-1H-pyrazolo[3,4-d]pyrimidine-3,6-diamine]	2.8 nM	292 nM	
Cc1cc(F)cc(C)c1Nc1nn(C)c2nc(Nc3ccc4c(c3)CNCC4)ncc12 [Example 44, N^3-(4-fluoro-2,6-dimethylphenyl)-1-methyl-N^6-(1,2,3,4-tetrahydroisoquinoline-7-yl)-1H-pyrazolo[3,4-d]pyrimidine-3,6-diamine]	1.7 nM	69 nM	
Cc1ccc(NC(=O)c2cccc(C(F)(F)F)c2)cc1Nc1nn(C)c2nc(Nc3ccc4c(c3)C(C)NCC4)ncc12 (stereo not drawn) [Example 47, N-(4-methyl-3-(1-methyl-6-(1-methyl-1,2,3,4-tetrahydroisoquinoline-7-ylamino)-1H-pyrazolo[3,4-d]pyrimidine-3-ylamino)phenyl)-3-(trifluoromethyl)benzamide]	5.42 nM	13.8 nM	
Cc1cccc(Cl)c1Nc1nn(C)c2nc(Nc3ccc4c(c3)CNCC4)ncc12 [Example 48, N^3-(2-chloro-6-methylphenyl)-1-methyl-N^6 (1,2,3,4-tetrahydroisoquinoline-7-yl)-1H-pyrazolo[3,4-d]pyrimidine-3,6-diamine]	1.28 nM	50.2 nM	
Cc1cccc(C)c1Nc1nn(C)c2nc(Nc3ccc4c(c3)C(C(C)C)NCC4)ncc12 (stereo not drawn) [Example 49, N^3-(2,6-dimethylphenyl)-N^6-(1-isopropyl-1,2,3,4-tetrahydroisoquinoline-7-yl)-1-methyl-1H-pyrazolo[3,4-d]pyrimidine-3,6-diamine]	1.61 nM	19.6 nM	
Cc1cccc(C)c1Nc1nn(C)c2nc(Nc3ccc4c(c3)CNC(C)(C)C4)ncc12 [Example 53, N^6-(3,3-dimethyl-1,2,3,4-tetrahydroisoquinoline-7-yl)-N^3-(2,6-dimethylphenyl)-1-methyl-1H-pyrazolo[3,4-d]pyrimidine-3,6-diamine]	0.523 nM	31.9 nM	
Cc1cccc(C)c1Nc1nn(C2CCC(O)CC2)c2nc(Nc3ccc4c(c3)CNCC4)ncc12 (stereo not drawn) [Example 54, 4-(3-((2,6-dimethylphenyl)amino)-6-((1,2,3,4-tetrahydroisoquinoline-7-yl)amino)-1H-pyrazolo[3,4-d]pyrimidine-1-yl)cyclohexane-1-ol]	1.14 nM	60.9 nM	
Cc1cccc(C)c1Nc1nn(C)c2nc(Nc3ccc4c(c3)C(C)NC(C)(C)C4)ncc12 (stereo not drawn) [Example 55, N3-(2,6-dimethylphenyl)-1-methyl-N 6-(1,3,3-trimethyl-1,2,3,4-tetrahydroisoquinoline-7-yl)-1H-pyrazolo[3,4-d]pyrimidine-3,6-diamine]	0.847 nM	16.8 nM	
Cc1cccc(C)c1Nc1nn(C)c2nc(Nc3ccc4c(c3)CNC4)ncc12 [Example 56, N^3-(2,6-dimethylphenyl)-N^6-(isoindolin-5-yl)-1-methyl-1H-pyrazolo[3,4-d]pyrimidine-3,6-diamine hydrochloride]	0.745 nM	58.9 nM	
Cc1cccc(C)c1Nc1nn(C)c2nc(Nc3ccc4c(c3)C(C)(C)NCC4)ncc12 [Example 58, N6-(1,1-dimethyl-1,2,3,4-tetrahydroisoquinolin-7-yl)-N 3-(2,6-dimethylphenyl)-1-methyl-1H-pyrazolo[3,4-d]pyrimidine-3,6-diamine]	1.69 nM	8.77 nM	
Cc1cccc(C)c1Nc1nn(C)c2nc(Nc3ccc4c(c3)C(C)(C)N(C)CC4)ncc12 [Example 59, N3-(2,6-dimethylphenyl)-1-methyl-N 6-(1,1,2-trimethyl-1,2,3,4-tetrahydroisoquinoline-7-yl)-1H-pyrazolo[3,4-d]pyrimidine-3,6-diamine]	1.84 nM	9.27 nM	
CC(=O)N1CCc2ccc(Nc3ncc4c(Nc5c(C)cccc5C)nn(C)c4n3)cc2C1(C)C [Example 60, 1-(7-((3-((2,6-dimethylphenyl)amino)-1-methyl-1H-pyrazolo[3,4-d]pyrimidine-6-yl)amino)-1,1-dimethyl-3,4-dihydroisoquinoline-2(1H)-yl)ethane-1-one]	4.01 nM	159 nM	
CC(=O)N1CCc2ccc(Nc3ncc4c(Nc5c(C)cccc5C)nn(C)c4n3)cc2C1C (stereo not drawn) [Example 61, 1-(7-((3-((2,6-dimethylphenyl)amino)-1-methyl-1H-pyrazolo[3,4-d]pyrimidine-6-yl)amino)-1-methyl-3,4-dihydroisoquinoline-2(1H)-yl)ethane-1-one]	1.03 nM	96.4 nM	
Cc1cccc(C)c1Nc1nn(C)c2nc(Nc3ccc4c(c3)C(C)N(C)CC4)ncc12 (stereo not drawn) [Example 62, N6-(1,2-dimethyl-1,2,3,4-tetrahydroisoquinoline-7-yl)-N 3-(2,6-dimethylphenyl)-1-methyl-1H-pyrazolo[3,4-d]pyrimidine-3,6-diamine]	1.21 nM	27.9 nM	
Cc1cccc(C)c1Nc1nn(C)c2nc(Nc3ccc4c(c3)CN(C)CC4(C)C)ncc12 [Example 63, N3-(2,6-dimethylphenyl)-1-methyl-N 6-(2,4,4-trimethyl-1,2,3,4-tetrahydroisoquinoline-7-yl)-1H-pyrazolo[3,4-d]pyrimidine-3,6-diamine]	2.13 nM	20.9 nM	
Cc1ccc(NC(=O)c2cccc(C(F)(F)F)c2)cc1Nc1nn(C)c2nc(Nc3ccc4c(c3)C(C)N(C)CC4)ncc12 (stereo not drawn) [Example 64, N-(3-((6-((1,2-dimethyl-1,2,3,4-tetrahydroisoquinolin-7-yl)amino)-1-methyl-1H-pyrazolo[3,4-d]pyrimidine-3-yl)amino)-4-methylphenyl)-3-(trifluoromethyl)benzamide]	5.22 nM	10.1 nM	
Cc1cccc(C)c1Nc1nn(C)c2nc(Nc3ccc4c(c3)C(C(C)C)N(C)CC4)ncc12 (stereo not drawn) [Example 65, N3-(2,6-dimethylphenyl)-N 6-(1-isopropyl-2-methyl-1,2,3,4-tetrahydroisoquinoline-7-yl)-1-methyl-1H-pyrazolo[3,4-d]pyrimidine-3,6-diamine]	7.74 nM	274 nM	
